Experimental data: patent publication US5405598A, “Sensitizing agents for use in boron neutron capture therapy” (priority 1992, dated 1995)

Key:
[1] = system: human immunodeficiency viruses (HIV); conditions: racemic BCH-189; FTC; cited from earlier work
Hepatitis B virus (HBV) = conditions: racemic BCH-189; FTC; cited from earlier work
HIV-1 (strain LAV) = test: Anti-HIV-1 activity in human PBM cells; format: cell-based; conditions: On day 6, in human PBM cells, without neutrons
Excerpt: Thus, these compounds have antiviral activity in the absence of neutrons.
(§1) Biological methods are described in Schinazi et al, Antimicrob. Agents Chemother., vol. 34, pp. 1061-1067, (1990).

malignant cells = conditions: under both euoxic and hypoxic conditions; cited from earlier work
[2] = mice, radiolabeled; cited from earlier work
[3] = mice; cited from earlier work
hamster V-79 cells = conditions: when irradiated with low energy neutrons; cited from earlier work
CEM = test: Cytotoxicity in CEM cells; format: cell-based; conditions: On day 6; read-out: CEM IC50 (cytotoxicity)
Excerpt: as §1

Vero = test: Cytotoxicity in Vero cells; format: cell-based; conditions: On day 3; read-out: Vero IC50 (cytotoxicity)
Excerpt: as §1

PBM = test: Cytotoxicity in PBM cells; format: cell-based, human; conditions: On day 6; read-out: PBM IC50 (cytotoxicity)
Excerpt: as §1

Nc1nc(=O)n([C@H]2CS[C@@H](CO)O2)cc1F [FTC, 2', 3'-dideoxy-5-fluoro-3'-thiacytidine]
viability as anti-HIV agent [1]: demonstrated | viability as anti-HBV agent (Hepatitis B virus (HBV)): demonstrated

5'-O-Butyryl-5-carboranyl-3'-thia-2',3'-dideoxyuridine
EC50 (HIV-1 (strain LAV)): 6.4 µM

Cc1cc(OP(=O)(O)O)c2cc(I)ccc2c1OP(=O)(O)O [6-I-MNDP, 6-iodo-2-methyl-1,4-naphthoquinol bis(diammonium phosphate)]
uptake into malignant cells relative to normal cells (malignant cells): 15-20 fold | uptake in tumor tissues [2]: high uptake | uptake into critical radiosensitive tissues, such as bone-marrow, colon, and lung [2]: low uptake | metabolic stability of the halogen-carbon bond [3]: metabolically stable

O=c1[nH]c(=O)n([C@H]2C[C@H](O)[C@@H](CO)O2)cc1B(O)O [DBDU, 5-dihydroxyboryl-2'-deoxyuridine]
destruction of hamster V-79 cells (hamster V-79 cells): destroy hamster V-79 cells

5-Carboranyl-2',3'-dideoxy-3'-thiauridine
CC50 (CEM): 37.9 µM | CC50 (Vero): 34.2 µM | CC50 (PBM): > 100 µM | EC50 (HIV-1 (strain LAV)): 12.1 µM

Nc1ccn([C@H]2CS[C@@H](CO)O2)c(=O)n1 (racemic) [BCH-189, 2', 3'-dideoxy-3'-thiacytidine]
viability as anti-HIV agent [1]: demonstrated | viability as anti-HBV agent (Hepatitis B virus (HBV)): demonstrated
